Read-outs that look alike come from different tables or passages of the source.
Legend:
[1] = tested on: NICD dependent luciferase activity (Hes-1 reporter); experiment: Hes-Luc luciferase reporter assay in HEK293 cells co-transfected with NotchΔE; format: cell-based, human; details: at concentrations that completely blocked Aβ generation
Method: (§1) Figure 2 Generation of NICD and Aβ from NotchΔE and APP expressing cells. A. Twenty four hrs after the construct carrying NotchΔE was transfected into APP expressing HEK293 cells, cells were treated with DAPT or cpd E for 8 hr and lysed for WB with antibody 1744 to specifically detect the N-terminus of NICD. Bottom panel, the antibody against α-tubulin was applied to normalize the amounts of lysates used for WB. B. Levels of NICD determined by WB were quantified by densitometry (dotted line). Levels of Aβ generated from the γ-secretase cleavage of APP in the presence of DAPT were determined by ELISA. […] C. NICD (dotted line) and Aβ (solid line) production from cpd E-treated cells were compared. […] D. A luciferase reporter construct driven by HES1 promoter was transfected into HEK293 cells followed by treatment with cpd E or DAPT.
Semi-quantification of NICD levels was detected by WB, and the inhibition profile of DAPT (Fig. 2B) and cpd E (Fig. 2C) were compared on NICD and Aβ generation in cultured cells. […] Since Notch signaling and levels of NICD can be examined by quantifying the expression of the Notch target gene, a Hes-1 reporter construct (Hes-Luc) was generated by insertion of three Su(H) binding sequences in the pGL3-pro luciferase reporter vector. […]

[2] = molecular target: T1, γ-secretase cleavage of chimeric APP-α-NOTCH (Homo sapiens, UniProt P49768); experiment: Nβ* ELISA from HEK293 cells expressing APP-α-Notch; format: cell-based
T1 construct: endogenous in cells; host or cells: HEK293 transiently transfected with APP-α-Notch
Text: Two cDNA constructs expressing chimeric APP and Notch were previously reported to generate chimeric "Notch-Aβ-like" (Nβ*) peptide. One construct has its transmembrane domain (TMD) replaced by the Notch TMD (APP-m-NOTCH) and the other with the juxtamembrane portion of the APP ectodomain (the α-secretase cleavage region) replaced by the corresponding sequence in Notch (APP-α-NOTCH). Taking advantage of different combinations of ELISA antibodies (see Methods), effects of cpd E on the generation of Aβ and Nβ* peptides from these chimeric APP-Notch substrates were quantified by ELISA.
Individual construct APP, APP-α-Notch or APP-m-Notch was transiently transfected into HEK293 cells. These chimeric protein expressing cells were treated with cpd E, and the levels of Aβ and Nβ* were measured by ELISA. […] Similar results were obtained when m-Notch was expressed in HEK293 cells. At least two magnitude of difference was observed, with EC50 for cpd E was […], compared to EC50 for Nβ* at ~1 nM (Fig. 3B).
Figure 3 Generation of Aβ and Nβ* from chimeric APP-Notch expressing cells. […] Levels of Nβ* in the media from cells expressing APP-α-Notch (dotted line) and levels of Aβ from APP expressing cells (solid line) were determined by ELISA. […] Levels of Aβ (solid line) and Nβ* (dotted line) were determined by ELISA. […]

[3] = molecular target: T2, γ-secretase cleavage of NotchΔE (Homo sapiens, UniProt P49768); experiment: NICD generation in NotchΔE transfected HEK293 cells, Western blot; format: cell-based; details: for NICD generation in cultured cells: high doses
T2 construct: endogenous in cells; host or cells: HEK293 stably expressing Swedish mutant human APP695, transiently transfected with NotchΔE
Method: Since many compounds could behave differently in vitro versus in culture cells, cpd E and DAPT were tested in cultured cells (Fig. 2). HEK293 cells stably expressing Swedish mutant APP were transiently transfected with NotchΔE, a truncated Notch construct that is readily cleaved by the γ-secretase to generate NICD for downstream signaling transduction. NotchΔE expressing cells were treated with increasing concentrations of DAPT or cpd E. Cell lysates were subjected to WB for measuring the generation of NICD (Fig. 2A), and conditioned media were collected for Aβ measurement by ELISA (Fig. 2B,C).
as §1
The cDNA construct NotchΔE has a c-myc tag and is a truncated Notch molecule that is an immediate substrate for γ-secretase cleavage to generate Notch intracellular domain (NICD). Two chimeric cDNA constructs express […] the juxtamembrane portion of the APP ectodomain (the α-secretase cleavage region) replaced by the corresponding sequence in Notch (APP-α-NOTCH). These cDNA constructs were provided by Dr. Dennis Selkoe. Hes-1 reporter construct (Hes-Luc) was generated by insertion three of Su(H) binding sequence
Human embryonic kidney (HEK) 293 cells stably expressing Swedish mutant human APP695 were transfected with different cDNA constructs and maintained in 200 μg/ml G418 (Invitrogen, Carlsbad, CA). Transfected cells were treated with two γ-secretase inhibitors cpd E or DAPT for 8 hr. Conditioned media were collected for ELISA, and cell lysates were analyzed by Western blot as described. Cells co-transfected with Hes-Luc and NotchΔE were treated with compounds followed by the measurement of luciferase activity (Luciferase Assay System, Promega, Madison, WI).

Structure (SMILES): C[C@H](NC(=O)Cc1cc(F)cc(F)c1)C(=O)N[C@H]1N=C(c2ccccc2)c2ccccc2N(C)C1=O [cpd E, (S,S)-2-[2-(3,5-Difluorophenyl)-acetylamino]-N-(1-methyl-2-oxo-5-phenyl-2,3-dihydro-1H-benzo [e] [1,4]diazepin-3-yl)-propionamide]
- luciferase activities remained [1]: about 50%
- EC50 [2]: ~8 nM
- EC50 ([3]; EC50 for the inhibition of NICD generation in cultured cells, Fig. 2): < 100 nM
- EC50 ([3]; EC50 to reduce NICD generation in cultured cells, Fig. 2B and 2C): 10 nM
- NICD generation in cultured cells [3]: could not completely eliminate NICD generation

Structure (SMILES): C[C@H](NC(=O)Cc1cc(F)cc(F)c1)C(=O)N[C@H](C(=O)OC(C)(C)C)c1ccccc1 [DAPT, N-[N-(3,5-Difluorophenacetyl-L-alanyl)]-S-phenylglycine t-Butyl Ester]
- luciferase activities remained [1]: about 50%
- Notch cleavage reduced to, cell culture based assay ([3]; 1 μM or higher): about 50%
- EC50 ([3]; Fig. 2B and 2C, read-out: EC50 to reduce NICD generation in cultured cells): ~1000 nM
- NICD generation in cultured cells [3]: could not completely eliminate NICD generation
